Measured values reported in ChEMBL document CHEMBL3885861, “Open TG-GATES”.

Species on record: Rattus norvegicus
Test: Open TG-GATES - Regimen: Daily Repeat
Format: toxicity, organism-based, Sprague-Dawley
Set-up: regimen Daily Repeat, gender Male, age 6 weeks
Conditions: in vivo, po, 1000 mg/kg, route gavage, dose level High; for APTT / Bas / Eos / Fbg / Hb / Ht / Lym / MCH / MCHC / MCV / Mono / Neu / PT / Plat / RBC / Ret / WBC: tissue Blood; for KIDNEY_L / KIDNEY_R / KIDNEY_TOTAL: tissue Kidney; for LIVER: tissue Liver; for A/G / ALP / ALT / AST / BUN / CRE / Ca / Cl / DBIL / GLC / IP / K / LDH / Na / PL / RALB / TBIL / TC / TG / TP / gamma-GTP: tissue Plasma

## O=C(OC[C@H]1O[C@@H](OC(=O)c2cc(O)c(O)c(OC(=O)c3cc(O)c(O)c(O)c3)c2)[C@H](OC(=O)c2cc(O)c(O)c(OC(=O)c3cc(O)c(O)c(O)c3)c2)[C@@H](OC(=O)c2cc(O)c(O)c(OC(=O)c3cc(O)c(O)c(O)c3)c2)[C@@H]1OC(=O)c1cc(O)c(O)c(OC(=O)c2cc(O)c(O)c(O)c2)c1)c1cc(O)c(O)c(OC(=O)c2cc(O)c(O)c(O)c2)c1 [TANNIC ACID]
72 h, time 3 day
  TERMINAL_BW: 216.2 g
  APTT: 17 s
  Bas: 0%
  Eos: 1.4%
  Fbg: 234.6 mg/dL
  Hb: 13.2 g/dL
  Ht: 39.6%
  Lym: 67.8%
  MCH: 21.3 pg
  MCHC: 33.3%
  MCV: 63.8 fL
  Mono: 10.2%
  Neu: 20.6%
  PT: 11.6 s
  Plat: 110.8 x10_4/uL
  RBC: 621.4 x10_4/ul
  Ret: 7.9%
  WBC: 91.3 x10_2/uL
  KIDNEY_L: 1 g
  KIDNEY_R: 1 g
  KIDNEY_TOTAL: 1.9 g
  LIVER: 10.6 g
  A/G: 2
  ALP: 818.6 IU/L
  ALT: 42.6 IU/L
  AST: 65.6 IU/L
  BUN: 17.6 mg/dL
  CRE: 0.4 mg/dL
  Ca: 10.9 mg/dL
  Cl: 104.2 meq/L
  DBIL: 0.004 mg/dL
  GLC: 204.4 mg/dL
  IP: 7.9 mg/dL
  K: 4.6 meq/L
  LDH: 81.6 IU/L
  Na: 139.4 meq/L
  PL: 152.8 mg/dL
  RALB: 3.6 g/dL
  TBIL: 0.4 mg/dL
  TC: 85 mg/dL
  TG: 88.6 mg/dL
  TP: 5.5 g/dL
  gamma-GTP: 1.2 IU/L
[…], time 7 day
  TERMINAL_BW: 253.1 g
  APTT: 17.3 s
  Bas: 0%
  Eos: 1%
  Fbg: 227.4 mg/dL
  Hb: 13.3 g/dL
  Ht: 40%
  Lym: 72%
  MCH: 21.8 pg
  MCHC: 33.3%
  MCV: 65.5 fL
  Mono: 6%
  Neu: 21.2%
  PT: 11.3 s
  Plat: 121.1 x10_4/uL
  RBC: 610.4 x10_4/ul
  Ret: 7.4%
  WBC: 103.9 x10_2/uL
  KIDNEY_L: 1.1 g
  KIDNEY_R: 1.1 g
  KIDNEY_TOTAL: 2.2 g
  LIVER: 12.1 g
  A/G: 1.7
  ALP: 897.4 IU/L
  ALT: 34.2 IU/L
  AST: 60 IU/L
  BUN: 16.2 mg/dL
  CRE: 0.5 mg/dL
  Ca: 10.8 mg/dL
  Cl: 103.2 meq/L
  DBIL: 0.012 mg/dL
  GLC: 200.4 mg/dL
  IP: 8 mg/dL
  K: 4.6 meq/L
  LDH: 93.4 IU/L
  Na: 136.6 meq/L
  PL: 125.4 mg/dL
  RALB: 3.7 g/dL
  TBIL: 0.4 mg/dL
  TC: 62.6 mg/dL
  TG: 91 mg/dL
  TP: 5.9 g/dL
  gamma-GTP: 1 IU/L
[…], time 14 day
  TERMINAL_BW: 291.2 g
  APTT: 16.4 s
  Bas: 0%
  Eos: 1%
  Fbg: 241.2 mg/dL
  Hb: 14.5 g/dL
  Ht: 43.2%
  Lym: 74.8%
  MCH: 20.5 pg
  MCHC: 33.4%
  MCV: 61.3 fL
  Mono: 9.4%
  Neu: 14.8%
  PT: 11.5 s
  Plat: 121.1 x10_4/uL
  RBC: 705.6 x10_4/ul
  Ret: 4.7%
  WBC: 116.2 x10_2/uL
  KIDNEY_L: 1.1 g
  KIDNEY_R: 1.1 g
  KIDNEY_TOTAL: 2.3 g
  LIVER: 12.9 g
  A/G: 1.9
  ALP: 720.4 IU/L
  ALT: 35.4 IU/L
  AST: 58.6 IU/L
  BUN: 17.8 mg/dL
  CRE: 0.5 mg/dL
  Ca: 10.7 mg/dL
  Cl: 104.6 meq/L
  DBIL: 0.024 mg/dL
  GLC: 204.2 mg/dL
  IP: 8.3 mg/dL
  K: 4.6 meq/L
  LDH: 87.6 IU/L
  Na: 140.4 meq/L
  PL: 145.2 mg/dL
  RALB: 3.8 g/dL
  TBIL: 0.4 mg/dL
  TC: 70.4 mg/dL
  TG: 115.8 mg/dL
  TP: 5.8 g/dL
  gamma-GTP: 0.8 IU/L
[…], time 28 day
  TERMINAL_BW: 390.8 g
  APTT: 16 s
  Bas: 0%
  Eos: 1.6%
  Fbg: 225.2 mg/dL
  Hb: 14.4 g/dL
  Ht: 43%
  Lym: 78.2%
  MCH: 19.4 pg
  MCHC: 33.5%
  MCV: 57.9 fL
  Mono: 7.6%
  Neu: 12.6%
  PT: 11.6 s
  Plat: 118.3 x10_4/uL
  RBC: 741.4 x10_4/ul
  Ret: 3.1%
  WBC: 130.6 x10_2/uL
  KIDNEY_L: 1.4 g
  KIDNEY_R: 1.4 g
  KIDNEY_TOTAL: 2.8 g
  LIVER: 16.8 g
  A/G: 1.8
  ALP: 573 IU/L
  ALT: 31.6 IU/L
  AST: 54 IU/L
  BUN: 20.4 mg/dL
  CRE: 0.5 mg/dL
  Ca: 10.7 mg/dL
  Cl: 105.8 meq/L
  DBIL: 0.006 mg/dL
  GLC: 199.2 mg/dL
  IP: 7.8 mg/dL
  K: 4.5 meq/L
  LDH: 87.8 IU/L
  Na: 139 meq/L
  PL: 152.6 mg/dL
  RALB: 3.8 g/dL
  TBIL: 0.4 mg/dL
  TC: 73.4 mg/dL
  TG: 139.4 mg/dL
  TP: 6 g/dL
  gamma-GTP: 1 IU/L
